This note sets out measurements from patent US6746663B2, “Porphyrin compounds” (Photochemical Co., Ltd., priority 1999, dated 2004).

Where a name gives a salt, the structure may show the parent alone.

Series [1] is described as follows: Photosensitizing oxidation reaction using Dansyl methionine. Particulars: for Degree of Photo Reaction (reaction end time): 0.1 μM photosensitizer, 10 μM Dansyl methionine in chloroform, halogen lamp irradiation, time until Dansyl methionine disappeared on TLC, smaller = stronger. Here is the method:
(§1) Albumin test is a test method for evaluating the affinity to cancerous tissues, in which a chlorin derivative is examined on the change in ultraviolet (UV) absorption spectrum in a mixture form with albumine, and dancyl methionine test is also a convenient test method for evaluating the strength of the photoreactivity by thin layer chromatography (TLC) or high performance liquid chromatography (HPLC) (see Japanese Patent Application Laid-open No. 5-97857).
To 1 ml of chloroform, 10 μM of Dansyl methionine, a substrate, was added, and then 0.1 μM of the photosensitizer of the present invention [sodium salt of NOEt-P-Asp(I)] was further added. Laser irradiation was conducted using Cold Spot PICL-SX (Nippon P.I. Co., Ltd.) which is halogen lamp, has 150 W wave length and 80,00 Lux, under stirring. The reaction solution was spotted at every minute on TLC plate (Kieselgel 60F254), and developed with chloroform methanol (3:2), then Dansyl methionine and its oxide (Dansylmethionine sulfoxide) were confirmed using UV lamp (254 nm). The time that Dansylmethionine disappeared completely on TLC plate was stated as the end of the reaction time, and photo oxidation reaction of photosensitizer was compared.
Photofrin II (Trade Mark) was used as a control of photosensitizer of present invention.

Series [2] deals with tumor tissues of colon cancer Colon 26. Briefly: Evaluation on tissue accumulability (cancer/organ concentration by surface fluorescence). Particulars: 10 mg/kg intravenous, 3H/He mice bearing Colon 26, 1 to 24 hours after administration, FIG. 2. The format is in vivo. Here is the method:
In the graph, the curve No.1 represents the result of cancer/brain, the curve No.2 represents the result of cancer/liver, the curve No.3 represents the result of cancer/lung, the curve No.4 represents cancer/muscle, the curve No.5 represents cancer/kidney, and the curve No.6 represents cancer/plasma.
3H/He mice (5 per group) implanted with tumor tissues of colon cancer Colon 26 for 14 to 21 days, were given an intravenous injection of sodium salt of each of NOEt-P-Asp(I) (10 mg/kg for each mouse) which had been diluted with a distilled water for injection. The blood samples were collected and the organs bearing the tumor tissue were extirpated after the injection, irradiated with N2-pulsed laser (N2, wavelength: 337 nm, 2 ns, 400-1,000 nm), and the excited fluorescent spectrum was measured. The wavelength in the range of 600 to 900 nm was examined based on the peak wavelength of NADH at 470 nm (determination of the distribution of the test compound in the organ by the surface fluorescence method using N2-pulsed laser spectrophotometry). That is, the distributed concentration of sodium salt of NOEt-P-Asp(I) in cancer/organ (or plasma) ratio was determined by calculating the peak wavelength at 670 nm when the peak wavelength at 470 nm was considered as the basic value, 1.

For series [3], the target named is albumin (Homo sapiens, UniProt P02768). Nature of the series: Albumin test (change in UV absorption spectrum in mixture with albumin). The format is binding.
From the text: as §1

albumin, sequence (P02768 25-609, species assumed): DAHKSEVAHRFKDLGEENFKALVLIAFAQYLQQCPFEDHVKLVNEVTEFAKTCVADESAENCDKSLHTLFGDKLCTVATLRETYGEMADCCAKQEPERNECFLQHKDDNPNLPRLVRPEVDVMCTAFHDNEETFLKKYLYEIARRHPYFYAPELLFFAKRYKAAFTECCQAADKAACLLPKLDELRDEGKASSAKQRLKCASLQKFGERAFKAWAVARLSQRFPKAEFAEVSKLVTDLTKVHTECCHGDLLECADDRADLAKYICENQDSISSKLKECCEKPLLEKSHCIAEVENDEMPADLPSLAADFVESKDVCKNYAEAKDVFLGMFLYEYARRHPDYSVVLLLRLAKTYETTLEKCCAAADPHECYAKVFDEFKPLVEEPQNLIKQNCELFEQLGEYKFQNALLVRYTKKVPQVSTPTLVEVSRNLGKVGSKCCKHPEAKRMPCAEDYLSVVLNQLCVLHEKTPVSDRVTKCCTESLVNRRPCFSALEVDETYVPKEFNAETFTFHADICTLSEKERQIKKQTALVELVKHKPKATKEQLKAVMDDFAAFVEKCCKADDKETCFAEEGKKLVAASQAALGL

As to “13,17-bis[(1,2-dicarboxyethyl)carbamoylethyl]-8-ethenyl-2-hydroxy-3-etoxyiminoethylidene-2,17,12,18-tetramethyl-porphyrin [NOEt-P-Asp(II) Na salt]”, in series [1], the “Degree of Photo Reaction (reaction end time)” value stood at 4 min.

With `C=Cc1c(C)c2cc3nc(cc4[nH]c(cc5nc(cc1[nH]2)C(C)(O)C5=CC=NOCC)c(C)c4CCC(=O)NC(CC(=O)O)C(=O)O)C(CCC(=O)NC(CC(=O)O)C(=O)O)=C3C` (centres unmarked) [NOEt-P-Asp(I) Na salt, 13,17-bis[(1,2-dicarboxylethyl)carbamoylethyl]-3-ethenyl-7-hydroxy-8-ethoxyiminoethylidene-2,7,12,18-tetramethyl-porphyrin], the “Degree of Photo Reaction (reaction end time)” value in series [1] was 4 min. In addition, the “accumulability to cancerous tissues (cancer/organ or plasma concentration ratio)” value in series [2] is given as “much higher accumulability to cancerous tissues”. Take `C=Cc1c(C)c2cc3nc(cc4[nH]c(cc5nc(cc1[nH]2)C(C)(O)C5=CC=NOCC)c(C)c4CCC(=O)NC(CC(=O)O)C(=O)O)C(CCC(=O)NC(CC(=O)O)C(=O)O)=C3C` (centres unmarked) [NOEt-P-Asp(I), 13,17-bis[(1,2-dicarboxylethyl)carbamoylethyl]-3-ethenyl-7-hydroxy-8-ethoxyiminoethylidene-2,7,12,18-tetramethyl-porphyrin]: the “transferability to cancerous tissues (affinity to cancerous tissues)” value in series [3] is given as “excellent transferability to cancerous tissues”. In series [1] (dancyl methionine test, result in words), the “photosensitivity (strength of photoreactivity)” value is “strong photosensitivity”.
